Reference: US4798823A, “New cyclosporin analogs with modified "C-9 amino acids"” (Merck & Co., Inc., priority 1987, dated 1989)

Target: cyclophilin (Bos taurus, UniProt P62935)
Assay: Cyclophilin binding assay
Details: relative to cyclosporin A (CsA); average of multiple assays
Source text: ^a This assay is described in detail by R. Handschumacher et. al.,

cyclophilin, sequence (P62935 whole entry): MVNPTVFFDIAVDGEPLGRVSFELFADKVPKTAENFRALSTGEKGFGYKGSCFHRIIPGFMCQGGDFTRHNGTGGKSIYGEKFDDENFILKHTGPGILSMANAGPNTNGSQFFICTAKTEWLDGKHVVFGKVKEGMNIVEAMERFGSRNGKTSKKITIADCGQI

## cyclo[[](((2S,3R,[4R]4S)-N,4-dimethyl-4-(methylthiomethyl)-threonyl)-L-2-aminobutyrylsarcosyl-N-methyl-L-leucyl-L-valyl-N-methyl-L-leucyl-L-alanyl-D- alanyl-N-methyl-L-leucyl-N-methyl-L-leucyl-N-methyl-L-valyl-[]]) [(a)]
  CYCLOPHILIN BINDING (% OF CsA Activity): 179 % OF CsA Activity
